The results in this text go back to PMC12152872, “Molecular glue binding behavior of phosphoantigens to alpaca butyrophilins” (The Journal of Biological Chemistry, 2025).

Each structure is given as a SMILES string.

Common to all, as to type: binding
Experiment [1] has as its target T1, VpBTN2 B30.2 and VpBTN3 B30.2 ΔC domains (Vicugna pacos, UniProt A0A345DF50+A0A6J0B3M7).
T1 construct: gene Btn3; mixture of VpBTN2 B30.2 (residues 311-535) and VpBTN3 B30.2 ΔC (residues 323-513), mixed 2:1; E. coli BL21(DE3), His tags removed by TEV; VpBTN2 site R475, T508, V509
Put plainly: ITC, VpBTN2 B30.[…] titrated into preformed VpBTN3 B30.[…] ΔC-DMASPP complex (second titration). The note with it: 25 °C, 25 mM Hepes pH 7.5, 150 mM NaCl; molecular glue; protein-protein KD in presence of DMASPP. On the technique in general: ITC needs no label: the signal is the heat of the interaction.

Experiment [2] deals with T2, BTN3A1 and BTN2A1 B30.2 domains (Homo sapiens, UniProt O00481+Q7KYR7).
T2 construct: BTN2A1 B30.2 in pET28a, Ni-NTA and DEAE; BTN3A1 B30.2 prepared as VpBTN3 B30.2; printed PDB ids are of BTN3A1 B30.2 only
Put plainly: ITC, second titration (BTN2A1 B30.[…] into BTN3A1 B30.2-DMASPP complex). The note with it: 25 °C, 25 mM Hepes pH 7.5, 150 mM NaCl; molecular glue; protein-protein KD in presence of DMASPP.

Experiment [3] addresses T3, VpBTN2 B30.2 and full-length VpBTN3 B30.2 domain (Vicugna pacos, UniProt A0A345DF50+A0A6J0B3M7).
T3 construct: gene Btn3; E. coli
Put plainly: ITC, VpBTN2 B30.[…] titrated into preformed full-length VpBTN3 B30.2-DMASPP complex (second titration). The following applies: 25 °C, 25 mM Hepes pH 7.5, 150 mM NaCl; molecular glue; protein-protein KD in presence of DMASPP.

In experiment [4] the target is T2, BTN3A1 and BTN2A1 B30.2 domains. Put plainly: ITC, DMASPP titrated into mixture of BTN2A1 and BTN3A1 B30.[…] (first titration).
For experiment [5], the target named is T1, VpBTN2 B30.2 and VpBTN3 B30.2 ΔC domains. Put plainly: ITC, DMASPP titrated into mixture of VpBTN2 and VpBTN3 B30.[…] ΔC (first titration).
Experiment [6] has as its target T4, VpBTN3 B30.2 ΔC (Vicugna pacos, UniProt A0A345DF50).
T4 construct: gene Btn3; intracellular B30.2 domain, residues 323-513, C-terminal loop truncated; pET32a, E. coli BL21(DE3); N-terminal His tag removed by TEV; pocket H381, H408, W421, K423, R442, R448, R499
Put plainly: ITC; crystal structure.

A word on the KD: it is the equilibrium constant for the complex coming apart. By Kd is commonly meant a measure of binding affinity in units of concentration.

T1 sequence (A0A345DF50 323-513, stated change not applied): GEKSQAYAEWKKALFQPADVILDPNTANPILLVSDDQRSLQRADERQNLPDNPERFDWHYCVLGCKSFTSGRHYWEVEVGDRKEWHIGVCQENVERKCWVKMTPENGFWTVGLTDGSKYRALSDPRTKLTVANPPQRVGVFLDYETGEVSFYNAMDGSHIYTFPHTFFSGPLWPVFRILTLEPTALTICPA
T1 sequence (A0A6J0B3M7 311-535, stated change not applied): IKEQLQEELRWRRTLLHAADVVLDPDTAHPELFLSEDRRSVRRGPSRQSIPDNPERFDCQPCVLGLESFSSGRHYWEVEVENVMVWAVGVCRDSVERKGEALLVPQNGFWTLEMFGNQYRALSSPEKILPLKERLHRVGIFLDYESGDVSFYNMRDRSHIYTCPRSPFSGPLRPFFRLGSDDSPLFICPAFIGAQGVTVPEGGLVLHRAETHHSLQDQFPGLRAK
T2 sequence (O00481 328-513): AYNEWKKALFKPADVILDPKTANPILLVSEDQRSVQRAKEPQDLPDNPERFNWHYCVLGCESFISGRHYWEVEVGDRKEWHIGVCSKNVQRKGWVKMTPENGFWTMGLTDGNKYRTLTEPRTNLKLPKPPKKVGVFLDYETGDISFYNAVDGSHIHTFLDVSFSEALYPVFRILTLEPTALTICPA
T2 sequence (Q7KYR7 310-506 limits assumed): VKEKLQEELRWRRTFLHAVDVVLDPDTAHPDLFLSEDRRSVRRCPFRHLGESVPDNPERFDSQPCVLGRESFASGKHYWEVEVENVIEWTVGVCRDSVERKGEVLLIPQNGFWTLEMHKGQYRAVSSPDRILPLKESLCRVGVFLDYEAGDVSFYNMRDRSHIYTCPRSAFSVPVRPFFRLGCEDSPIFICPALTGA
T3 sequence (A0A345DF50 323-557 limits assumed): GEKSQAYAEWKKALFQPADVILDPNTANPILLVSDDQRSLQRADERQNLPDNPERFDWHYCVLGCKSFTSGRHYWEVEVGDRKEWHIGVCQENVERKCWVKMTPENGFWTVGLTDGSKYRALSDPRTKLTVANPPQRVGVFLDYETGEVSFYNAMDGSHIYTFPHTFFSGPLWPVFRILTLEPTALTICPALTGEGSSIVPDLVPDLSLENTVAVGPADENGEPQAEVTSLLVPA
T3 sequence (A0A6J0B3M7 311-535): as the sequence (A0A6J0B3M7 311-535, stated change not applied) above
T4 sequence (A0A345DF50 323-513, stated change not applied): as the sequence (A0A345DF50 323-513, stated change not applied) above

With `CC(C)=CCSP(=O)(O)OP(=O)(O)O` [DMASPP], the KD in experiment [1] stood at 22.8 µM; in experiment [2] it was 18.8 µM; in experiment [3], 15.2 µM. The values for the dissociation constant Kd in experiment [4], in experiment [5] and in experiment [6] were 8.19 µM, 4.34 µM and 44.7 µM, respectively.
